# Experimental data: the supplement of paper PMC10307832
# Key:
# Test in all cases: relative viability (nuclei count vs DMSO), 5 days (fraction); higher = more cells survive
# [1] = system: 201T
# Procedure, shortened: (§1)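 Lung cancer cell lines in 1536-well plates got either a single drug or a fixed anchor-drug dose together with five library-drug doses (not always all listed) in √10 steps, by pin tool, on the day after seeding. Nuclei were counted after 5 days, and relative viability is the treated-to-vehicle ratio of nuclei counts. Values are medians of duplicate plates.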
# [2] = system: HCC-44
# Procedure, shortened: as §1
# [3] = system: NCI-H2170
# Procedure, shortened: as §1
# [4] = system: NCI-H647
# Procedure, shortened: as §1
# [5] = system: EPLC-272H
# Procedure, shortened: as §1
# [6] = system: LCLC-97TM1
# Procedure, shortened: as §1
# [7] = system: HCC-827
# Procedure, shortened: as §1
# [8] = system: SW 1573
# Procedure, shortened: as §1
# [9] = system: COR-L 105
# Procedure, shortened: as §1
# [10] = system: H3255
# Procedure, shortened: as §1
# [11] = system: NCI-H2087
# Procedure, shortened: as §1
# [12] = system: PC-3 [JPC-3]
# Procedure, shortened: as §1
# [13] = system: LU99A
# Procedure, shortened: as §1
# [14] = system: NCI-H650
# Procedure, shortened: as §1
# [15] = system: NCI-H2342
# Procedure, shortened: as §1
# [16] = system: EKVX
# Procedure, shortened: as §1
# [17] = system: NCI-H2085
# Procedure, shortened: as §1
# [18] = system: NCI-H1666
# Procedure, shortened: as §1
# [19] = system: NCI-H1437
# Procedure, shortened: as §1
# [20] = system: LOU-NH91
# Procedure, shortened: as §1
# [21] = system: BEN
# Procedure, shortened: as §1
# [22] = system: NCI-H1975
# Procedure, shortened: as §1
smiles,measurement,setting,value
O=c1cc(N2CCOCC2)oc2c(-c3cccc4c3sc3ccccc34)cccc12 + N=C(N)NC(=N)NCCc1ccccc1 [Phenformin] (partner 250 µM),relative viability,[1]; first compound 0.01 µM,0.289
same,relative viability,[1]; first compound 0.03162 µM,0.488
same,relative viability,[1]; first compound 0.1 µM,0.469
same,relative viability,[1]; first compound 0.3162 µM,0.441
same,relative viability,[1]; first compound 1 µM,0.43
same,relative viability,[2]; first compound 0.01 µM,0.249
same,relative viability,[2]; first compound 0.03162 µM,0.187
same,relative viability,[2]; first compound 0.1 µM,0.134
same,relative viability,[2]; first compound 0.3162 µM,0.366
same,relative viability,[2]; first compound 1 µM,0.139
same,relative viability,[3]; first compound 0.01 µM,0.401
same,relative viability,[3]; first compound 0.03162 µM,0.422
same,relative viability,[3]; first compound 0.1 µM,0.462
same,relative viability,[3]; first compound 0.3162 µM,0.384
same,relative viability,[3]; first compound 1 µM,0.39
same,relative viability,[4]; first compound 0.01 µM,0.547
same,relative viability,[4]; first compound 0.03162 µM,0.643
same,relative viability,[4]; first compound 0.1 µM,0.319
same,relative viability,[4]; first compound 0.3162 µM,0.526
same,relative viability,[4]; first compound 1 µM,0.715
same,relative viability,[5]; first compound 0.01 µM,0.394
same,relative viability,[5]; first compound 0.03162 µM,0.316
same,relative viability,[5]; first compound 0.3162 µM,0.286
same,relative viability,[5]; first compound 1 µM,0.298
same,relative viability,[6]; first compound 0.01 µM,0.43
same,relative viability,[6]; first compound 0.03162 µM,0.458
same,relative viability,[6]; first compound 0.1 µM,0.431
same,relative viability,[6]; first compound 0.3162 µM,0.378
same,relative viability,[6]; first compound 1 µM,0.449
same,relative viability,[7]; first compound 0.01 µM,0.368
same,relative viability,[7]; first compound 0.03162 µM,0.391
same,relative viability,[7]; first compound 0.1 µM,0.396
same,relative viability,[7]; first compound 0.3162 µM,0.405
same,relative viability,[7]; first compound 1 µM,0.402
same,relative viability,[8]; first compound 0.01 µM,0.451
same,relative viability,[8]; first compound 0.03162 µM,0.395
same,relative viability,[8]; first compound 0.1 µM,0.426
same,relative viability,[8]; first compound 0.3162 µM,0.326
same,relative viability,[8]; first compound 1 µM,0.343
same,relative viability,[9]; first compound 0.01 µM,0.462
same,relative viability,[9]; first compound 0.03162 µM,0.497
same,relative viability,[9]; first compound 0.1 µM,0.607
same,relative viability,[9]; first compound 0.3162 µM,0.568
same,relative viability,[9]; first compound 1 µM,0.383
same,relative viability,[10]; first compound 0.01 µM,0.388
same,relative viability,[10]; first compound 0.03162 µM,0.334
same,relative viability,[10]; first compound 0.1 µM,0.328
same,relative viability,[10]; first compound 0.3162 µM,0.368
same,relative viability,[10]; first compound 1 µM,0.35
same,relative viability,[11]; first compound 0.01 µM,0.423
same,relative viability,[11]; first compound 0.03162 µM,0.535
same,relative viability,[11]; first compound 0.1 µM,0.45
same,relative viability,[11]; first compound 0.3162 µM,0.46
same,relative viability,[11]; first compound 1 µM,0.431
same,relative viability,[12]; first compound 0.01 µM,0.467
same,relative viability,[12]; first compound 0.03162 µM,0.476
same,relative viability,[12]; first compound 0.1 µM,0.441
same,relative viability,[12]; first compound 0.3162 µM,0.496
same,relative viability,[12]; first compound 1 µM,0.513
same,relative viability,[13]; first compound 0.01 µM,0.558
same,relative viability,[13]; first compound 0.03162 µM,0.833
same,relative viability,[13]; first compound 0.1 µM,0.925
same,relative viability,[13]; first compound 0.3162 µM,0.833
same,relative viability,[13]; first compound 1 µM,0.887
same,relative viability,[14]; first compound 0.03162 µM,0.484
same,relative viability,[14]; first compound 0.1 µM,0.302
same,relative viability,[14]; first compound 0.3162 µM,0.511
same,relative viability,[14]; first compound 1 µM,0.413
same,relative viability,[15]; first compound 0.01 µM,0.575
same,relative viability,[15]; first compound 0.03162 µM,0.59
same,relative viability,[15]; first compound 0.1 µM,0.601
same,relative viability,[15]; first compound 0.3162 µM,0.621
same,relative viability,[15]; first compound 1 µM,0.576
same,relative viability,[16]; first compound 0.01 µM,0.228
same,relative viability,[16]; first compound 0.03162 µM,0.238
same,relative viability,[16]; first compound 0.1 µM,0.201
same,relative viability,[16]; first compound 0.3162 µM,0.216
same,relative viability,[16]; first compound 1 µM,0.199
same,relative viability,[17]; first compound 0.01 µM,0.713
same,relative viability,[17]; first compound 0.03162 µM,0.708
same,relative viability,[17]; first compound 0.1 µM,0.625
same,relative viability,[17]; first compound 0.3162 µM,0.745
same,relative viability,[17]; first compound 1 µM,0.734
same,relative viability,[18]; first compound 0.01 µM,0.566
same,relative viability,[18]; first compound 0.03162 µM,0.607
same,relative viability,[18]; first compound 0.1 µM,0.526
same,relative viability,[18]; first compound 0.3162 µM,0.54
same,relative viability,[18]; first compound 1 µM,0.584
same,relative viability,[19]; first compound 0.01 µM,0.32
same,relative viability,[19]; first compound 0.03162 µM,0.323
same,relative viability,[19]; first compound 0.1 µM,0.298
same,relative viability,[19]; first compound 0.3162 µM,0.338
same,relative viability,[19]; first compound 1 µM,0.282
same,relative viability,[20]; first compound 0.01 µM,0.58
same,relative viability,[20]; first compound 0.03162 µM,0.688
same,relative viability,[20]; first compound 0.1 µM,0.689
same,relative viability,[20]; first compound 0.3162 µM,0.791
same,relative viability,[20]; first compound 1 µM,0.618
same,relative viability,[21]; first compound 0.01 µM,0.241
same,relative viability,[21]; first compound 0.03162 µM,0.305
same,relative viability,[21]; first compound 0.1 µM,0.27
same,relative viability,[21]; first compound 0.3162 µM,0.271
same,relative viability,[21]; first compound 1 µM,0.292
same,relative viability,[22]; first compound 0.01 µM,0.414
same,relative viability,[22]; first compound 0.03162 µM,0.439
same,relative viability,[22]; first compound 0.1 µM,0.408
same,relative viability,[22]; first compound 0.3162 µM,0.397
same,relative viability,[22]; first compound 1 µM,0.418
